Measured values reported in patent EP4242199A1 (priority 2022, dated 2023).
Read-outs that look alike come from different tables or passages of the source.

Legend:
Cercospora sojina = type: cell-based
Pyricularia oryzae = type: cell-based; details: PYRIOR, relative growth vs active compound-free control (100%), 405 nm, 7 days after inoculation, 18°C
Sclerotinia sclerotiorum = type: cell-based
Septoria tritici = assay: Microtest: activity against wheat leaf blotch pathogen Septoria tritici (SEPTTR); type: cell-based; details: relative growth vs active compound-free control (100%), 405 nm, 7 days after inoculation, 18°C
[1] = tested on: Qol (G143A) resistant isolate of Septoria tritici; assay: Microtest: activity against resistant isolate of Septoria tritici (SEPTTR res); type: cell-based; details: relative growth vs active compound-free control (100%), 405 nm, 7 days after inoculation, 18°C
Alternaria solani = type: cell-based
Leptosphaeria nodorum = assay: Microtest: activity against Leptosphaeria nodorum causing wheat leaf spots (LEPTNO); type: cell-based; details: relative growth vs active compound-free control (100%), 405 nm, 7 days after inoculation, 18°C
[2] = tested on: Qol (F129L) resistant isolate of Pyrenophora teres; assay: Microtest: activity against resistant isolate of net blotch pathogen Pyrenophora teres (PYRNTE res); type: cell-based; details: relative growth vs active compound-free control (100%), 405 nm, 7 days after inoculation, 18°C
[3] = tested on: Colletotrichum orbiculare; assay: Microtest: activity against anthracnose pathogen Colletotrichum orbiculare (COLLLA); type: cell-based; details: relative growth vs active compound-free control (100%), 405 nm, 7 days after inoculation, 18°C
Puccinia recondita [4] = type: in vivo; details: for PUCCRT Disease level (%) K4 at 63 ppm: wheat, curative spray 4 days after inoculation, % diseased leaf area, untreated 85
Puccinia recondita [5] = type: in vivo; details: for PUCCRT Disease level (%) P1 at 63 ppm: wheat, preventative spray 1 day before inoculation, % diseased leaf area, untreated 82
Phakopsora pachyrhizi [6] = assay: Greenhouse: protective control of soybean rust on soybeans caused by Phakopsora pachyrhizi (PHAKPA P2); type: in vivo; details: spray 2 days before inoculation, F129L strain, % diseased leaf area, untreated 97
Phakopsora pachyrhizi [7] = assay: Greenhouse: protective control of soybean rust on soybeans caused by Phakopsora pachyrhizi (PHAKPA P6); type: in vivo; details: spray six days before inoculation, F129L strain, % diseased leaf area, untreated 74
Phytophthora infestans = type: cell-based; details: PHYTIN, relative growth vs active compound-free control (100%), 405 nm, 7 days after inoculation, 18°C
[8] = tested on: Qol (F129L) resistant isolate of Alternaria solani; assay: Microtest: activity against resistant isolate of Alternaria solani (ALTESO res); type: cell-based; details: relative growth vs active compound-free control (100%), 405 nm, 7 days after inoculation, 18°C
[9] = ALTESO, relative growth vs active compound-free control (100%), 405 nm, 7 days after inoculation, 18°C
[10] = SCLESC, relative growth vs active compound-free control (100%), 405 nm, 7 days after inoculation, 18°C

Compound | Growth (%) at 125 ppm (Cercospora sojina) [%] | Growth (%) at 125 ppm (Pyricularia oryzae) [%] | Growth (%) at 125 ppm (Sclerotinia sclerotiorum) [%] | Growth (%) at 125 ppm (Septoria tritici) [%] | Growth (%) at 125 ppm [1] [%] | Growth (%) at 125 ppm (Alternaria solani; [9]) [%] | Growth (%) at 125 ppm (Leptosphaeria nodorum) [%] | Growth (%) at 125 ppm [2] [%] | Growth (%) at 125 ppm (Sclerotinia sclerotiorum; [10]) [%] | Growth (%) at 125 ppm [3] [%] | PUCCRT Disease level (%) K4 at 63 ppm (Puccinia recondita [4]) [%] | PUCCRT Disease level (%) P1 at 63 ppm (Puccinia recondita [5]) [%] | PHAKPA Disease level (%) P2 at 63 ppm (Phakopsora pachyrhizi [6]) [%] | PHAKPA Disease level (%) P6 at 63 ppm (Phakopsora pachyrhizi [7]) [%] | PUCCRT Disease level (%) K4 at 16 ppm (Puccinia recondita [4]) [%] | PUCCRT Disease level (%) P1 at 16 ppm (Puccinia recondita [5]) [%] | Growth (%) at 125 ppm (Phytophthora infestans) [%] | Growth (%) at 125 ppm (Alternaria solani) [%] | Growth (%) at 125 ppm [8] [%]
C/C(C#Cc1ccc(Cl)cc1)=N\OCc1ccccc1-n1nnn(C)c1=O [Compound 1, 1-[2-[[(E)-[3-(4-Chlorophenyl)-1-methyl-prop-2-ynylidene]amino]oxymethyl]phenyl]-4-methyl-tetrazol-5-one] | 0 | 0 | 11 | 5 | 13 |  |  |  |  |  |  |  |  |  |  |  |  |  | 
Ethyl N-[2-[[(E)-[3-(4-chlorophenyl)-1-methyl-prop-2-ynylidene]amino]oxymethyl]-phenyl]-N-methoxy-carbamate [Compound 5] |  | 0 |  | 0 |  | 10 | 0 | 0 | 12 | 0 | 70 | 10 | 43 | 48 |  |  |  |  | 
(E)-4-(3-Chlorophenyl)-N-[[2-[(E)-C-(1,4,2-dioxazin-3-yl)-N-methoxy-carbonimido-yl]phenyl]methoxy]but-3-yn-2-imine [Compound 8] |  | 0 |  | 0 |  | 2 | 2 |  | 19 | 0 | 28 | 0 | 7 | 12 |  |  |  |  | 
(E)-4-(4-chlorophenyl)-N-[[2-[(E)-C-(1,4,2-dioxazin-3-yl)-N-methoxy-carbonimidoyl]-phenyl]methoxy]but-3-yn-2-imine [Compound 7] |  | 0 |  | 0 |  | 1 | 0 |  | 1 | 0 | 53 | 13 | 33 | 32 |  |  |  |  | 
COc1nn(C)c(=O)n1-c1ccccc1CO/N=C(\C)C#Cc1ccc(Cl)cc1 [Compound 2, 4-[2-[[(E)-[3-(4-Chlorophenyl)-1-methyl-prop-2-ynylidene]amino]oxymethyl]phenyl]-5-methoxy-2-methyl-1,2,4-triazol-3-one] |  | 16 |  |  |  |  |  |  |  |  |  |  |  |  | 30 | 11 |  |  | 
Ethyl N-[2-[[(E)-[3-(3-chlorophenyl)-1-methyl-prop-2-ynylidene]amino]oxymethyl]-phenyl]-N-methoxy-carbamate [Compound 6] |  | 0 |  | 0 |  | 0 | 0 | 0 | 17 | 0 | 50 | 7 | 11 | 13 |  |  |  |  | 
COc1nn(C)c(=O)n1-c1ccccc1CO/N=C(\C)C#Cc1cccc(Cl)c1 [Compound 4, 4-[2-[[(E)-[3-(3-Chlorophenyl)-1-methyl-prop-2-ynylidene]amino]oxymethyl]phenyl]-5-methoxy-2-methyl-1,2,4-triazol-3-one] |  | 0 | 17 | 0 | 0 |  | 7 | 0 |  |  |  |  |  |  | 31 | 13 | 0 | 4 | 16
